Assay results from ChEMBL document CHEMBL1201862, “PubChem BioAssay data set” (2004).
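How tested: cells in 96-well plates exposed to compound for 48 hours at five concentrations. GI50: concentration for 50% inhibition of growth.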 Calls of active or inactive are those of the source. No stated cut-off is given here; in the data, active = GI50 up to about 1.1 µM and inactive = higher.

Experiments:
Assay in all cases: growth of human tumour cells (NCI), 48 h
ACHN = tested on: ACHN
HCT-116 = tested on: HCT-116
HL-60 = tested on: HL-60
K562 = tested on: K562
KM12 = tested on: KM12
LOX IMVI = tested on: LOX IMVI
M14 = tested on: M14
MOLT-4 = tested on: MOLT-4
NCI-H460 = tested on: NCI-H460
OVCAR-4 = tested on: OVCAR-4
OVCAR-5 = tested on: OVCAR-5
OVCAR-8 = tested on: OVCAR-8
SK-MEL-2 = tested on: SK-MEL-2
SR = tested on: SR
SW-620 = tested on: SW-620
UACC-257 = tested on: UACC-257
IGROV-1 = tested on: IGROV-1
NCI-H23 = tested on: NCI-H23
SK-MEL-28 = tested on: SK-MEL-28
SK-MEL-5 = tested on: SK-MEL-5

Row | SMILES | GI50 (ACHN) | GI50 (HCT-116) | GI50 (HL-60) | GI50 (K562) | GI50 (KM12) | GI50 (LOX IMVI) | GI50 (M14) | GI50 (MOLT-4) | GI50 (NCI-H460) | GI50 (OVCAR-4) | GI50 (OVCAR-5) | GI50 (OVCAR-8) | GI50 (SK-MEL-2) | GI50 (SR) | GI50 (SW-620) | GI50 (UACC-257) | GI50 (IGROV-1) | GI50 (NCI-H23) | GI50 (SK-MEL-28) | GI50 (SK-MEL-5)
1 | COC(=O)C(=O)C(C(=O)C(=O)Nc1ccc([N+](=O)[O-])cc1C#N)c1nc2ccc([N+](=O)[O-])cc2nc1O (stereo not drawn) | > 100 µM (inactive) | > 100 µM (inactive) | > 100 µM (inactive) | > 100 µM (inactive) | > 100 µM (inactive) | > 100 µM (inactive) | > 100 µM (inactive) | > 100 µM (inactive) | > 100 µM (inactive) | > 100 µM (inactive) | > 100 µM (inactive) | > 100 µM (inactive) | > 100 µM (inactive) | 96.8 µM (inactive) | > 100 µM (inactive) | > 100 µM (inactive) | – | – | – | –
2 | Nc1nc(-c2ccco2)cc(-c2ccc(CO)o2)n1 | > 100 µM (inactive) | > 100 µM (inactive) | > 100 µM (inactive) | > 100 µM (inactive) | > 100 µM (inactive) | > 100 µM (inactive) | > 100 µM (inactive) | > 100 µM (inactive) | > 100 µM (inactive) | > 100 µM (inactive) | > 100 µM (inactive) | > 100 µM (inactive) | > 100 µM (inactive) | > 100 µM (inactive) | > 100 µM (inactive) | – | > 100 µM (inactive) | > 100 µM (inactive) | > 100 µM (inactive) | > 100 µM (inactive)
3 | COc1ccc(/C=C2/CCS(=O)(=O)c3ccc(C)cc3C2=O)cc1OC | 12.9 µM (inactive) | 10.2 µM (inactive) | 10.4 µM (inactive) | 24.8 µM (inactive) | 11 µM (inactive) | 8.11 µM (inactive) | 17.2 µM (inactive) | 12.1 µM (inactive) | 7.74 µM (inactive) | 11.3 µM (inactive) | 27.5 µM (inactive) | 12.3 µM (inactive) | 20 µM (inactive) | 20.6 µM (inactive) | 22.8 µM (inactive) | 11.9 µM (inactive) | 6.4 µM (inactive) | 12.5 µM (inactive) | 17.2 µM (inactive) | –
4 | O=C1C[C@@H]2[C@@H](c3ccccc3)[C@@H]3C(=O)c4ccccc4NC(=O)[C@H]3[C@]2(O)c2ccccc2N1 | > 100 µM (inactive) | > 100 µM (inactive) | > 100 µM (inactive) | > 100 µM (inactive) | > 100 µM (inactive) | > 100 µM (inactive) | > 100 µM (inactive) | > 100 µM (inactive) | > 100 µM (inactive) | > 100 µM (inactive) | > 100 µM (inactive) | > 100 µM (inactive) | > 100 µM (inactive) | > 100 µM (inactive) | > 100 µM (inactive) | – | > 100 µM (inactive) | > 100 µM (inactive) | > 100 µM (inactive) | > 100 µM (inactive)
5 | CC(C)CC(C#CCCOC(=O)c1ccccc1)OC(=O)c1ccccc1 (stereo not drawn) | > 10 µM (inactive) | > 10 µM (inactive) | > 10 µM (inactive) | > 10 µM (inactive) | > 10 µM (inactive) | > 10 µM (inactive) | > 10 µM (inactive) | > 10 µM (inactive) | > 10 µM (inactive) | – | > 10 µM (inactive) | > 10 µM (inactive) | > 10 µM (inactive) | > 10 µM (inactive) | > 10 µM (inactive) | > 10 µM (inactive) | > 10 µM (inactive) | > 10 µM (inactive) | > 10 µM (inactive) | > 10 µM (inactive)
6 | Cc1ccc(S(=O)(=O)N(CC(O)COc2ccccc2)c2c(F)c(F)c(F)c(F)c2F)cc1 (stereo not drawn) | 15.7 µM (inactive) | 17 µM (inactive) | 6.32 µM (inactive) | – | 20.7 µM (inactive) | 13.9 µM (inactive) | 20 µM (inactive) | 21.6 µM (inactive) | 14.4 µM (inactive) | 13.3 µM (inactive) | 18.3 µM (inactive) | 17.1 µM (inactive) | 16.4 µM (inactive) | 20.7 µM (inactive) | 18.7 µM (inactive) | – | – | 14.4 µM (inactive) | 16.9 µM (inactive) | 12.4 µM (inactive)
7 | Cc1ccc(/C=C2\CCCC(CN3CCCCC3)C2=O)cc1 (stereo not drawn) | 3.98 µM (inactive) | 1.76 µM (inactive) | 0.555 µM (active) | 1.57 µM (inactive) | 1.27 µM (inactive) | 1.84 µM (inactive) | – | 4 µM (inactive) | 3.89 µM (inactive) | 1.79 µM (inactive) | 15 µM (inactive) | 2.64 µM (inactive) | 2.89 µM (inactive) | 0.767 µM (active) | 1.75 µM (inactive) | 1.93 µM (inactive) | 1.96 µM (inactive) | 2.17 µM (inactive) | 1.63 µM (inactive) | 4.66 µM (inactive)
8 | Cc1cccc(-n2c(C)nc3ccc(NC4OC(CO)C(O)C(O)C4O)cc3c2=O)c1 (stereo not drawn) | > 100 µM (inactive) | > 100 µM (inactive) | > 100 µM (inactive) | > 100 µM (inactive) | > 100 µM (inactive) | > 100 µM (inactive) | – | > 100 µM (inactive) | > 100 µM (inactive) | > 100 µM (inactive) | > 100 µM (inactive) | > 100 µM (inactive) | 61 µM (inactive) | 50.7 µM (inactive) | > 100 µM (inactive) | > 100 µM (inactive) | > 100 µM (inactive) | > 100 µM (inactive) | > 100 µM (inactive) | > 100 µM (inactive)
9 | O=C(C=C1SCCS1)/C=C\c1ccc(Cl)cc1 | – | > 100 µM (inactive) | 56.9 µM (inactive) | 49.5 µM (inactive) | 87.1 µM (inactive) | 53.8 µM (inactive) | > 100 µM (inactive) | > 100 µM (inactive) | – | > 100 µM (inactive) | – | > 100 µM (inactive) | > 100 µM (inactive) | 85.7 µM (inactive) | > 100 µM (inactive) | 80.2 µM (inactive) | > 100 µM (inactive) | > 100 µM (inactive) | > 100 µM (inactive) | > 100 µM (inactive)
10 | CCOC(=O)C(C(N)=O)C1=Nc2cc([N+](=O)[O-])ccc2N/C1=C\C(=O)c1ccccc1 (stereo not drawn) | 15.3 µM (inactive) | 15 µM (inactive) | 8.93 µM (inactive) | 3.82 µM (inactive) | 12.1 µM (inactive) | 14.1 µM (inactive) | 14.7 µM (inactive) | – | 13.4 µM (inactive) | 18.7 µM (inactive) | 24 µM (inactive) | 16.4 µM (inactive) | 15.3 µM (inactive) | 3.3 µM (inactive) | 15.6 µM (inactive) | 19.8 µM (inactive) | 11.2 µM (inactive) | 11.5 µM (inactive) | 25.6 µM (inactive) | 16.7 µM (inactive)
11 | COc1cccc(-c2ccc3c4c2O[C@H]2c5[nH]c6ccccc6c5C[C@@]5(O)[C@@H](C3)N(CC3CC3)CC[C@]425)c1 | 1.63 µM (inactive) | 1.63 µM (inactive) | 1.38 µM (inactive) | 1.9 µM (inactive) | 1.85 µM (inactive) | 1.72 µM (inactive) | 1.81 µM (inactive) | 0.82 µM (active) | 1.79 µM (inactive) | 1.71 µM (inactive) | 7.08 µM (inactive) | 1.65 µM (inactive) | 1.69 µM (inactive) | 1.76 µM (inactive) | 1.93 µM (inactive) | 1.74 µM (inactive) | 1.64 µM (inactive) | 2.21 µM (inactive) | – | 1.94 µM (inactive)
12 | Cc1cn(C2CC(O)C(COP(=O)(O)OC3CC(n4c[n+]([BH2-]C#N)c5c(=O)[nH]c(N)nc54)OC3CO)O2)c(=O)[nH]c1=O (stereo not drawn) | > 100 µM (inactive) | > 100 µM (inactive) | > 100 µM (inactive) | > 100 µM (inactive) | > 100 µM (inactive) | > 100 µM (inactive) | – | > 100 µM (inactive) | > 100 µM (inactive) | > 100 µM (inactive) | > 100 µM (inactive) | > 100 µM (inactive) | > 100 µM (inactive) | > 100 µM (inactive) | > 100 µM (inactive) | > 100 µM (inactive) | > 100 µM (inactive) | > 100 µM (inactive) | > 100 µM (inactive) | > 100 µM (inactive)
13 | [N-]=[N+]=NC(CCl)c1cn([C@H]2C[C@H](O)[C@@H](CO)O2)c(=O)[nH]c1=O (stereo partly drawn) | > 100 µM (inactive) | > 100 µM (inactive) | > 100 µM (inactive) | > 100 µM (inactive) | > 100 µM (inactive) | > 100 µM (inactive) | > 100 µM (inactive) | > 100 µM (inactive) | > 100 µM (inactive) | – | > 100 µM (inactive) | > 100 µM (inactive) | > 100 µM (inactive) | > 100 µM (inactive) | > 100 µM (inactive) | – | > 100 µM (inactive) | > 100 µM (inactive) | > 100 µM (inactive) | > 100 µM (inactive)
14 | c1ccc(-c2nc(-c3ccccc3)c(-c3ccccc3)[nH]2)cc1 | > 100 µM (inactive) | 71.9 µM (inactive) | 18.1 µM (inactive) | – | > 93.8 µM (inactive) | > 100 µM (inactive) | > 100 µM (inactive) | > 35.8 µM (inactive) | 44.9 µM (inactive) | 85.9 µM (inactive) | > 100 µM (inactive) | > 66.1 µM (inactive) | > 100 µM (inactive) | 17.5 µM (inactive) | > 100 µM (inactive) | > 85.5 µM (inactive) | > 91.6 µM (inactive) | > 100 µM (inactive) | > 100 µM (inactive) | > 100 µM (inactive)
